In article PMC11583740, “Genotype-specific effects of elamipretide in patients with primary mitochondrial myopathy: a post hoc analysis of the MMPOWER-3 trial” (Orphanet Journal of Rare Diseases, 2024):

What was measured:
[1] = system: subjects with Barth Syndrome; settings: after approximately 36 weeks in the 168-week open-label phase; n = 8; p = 0.02; cited from earlier work
Excerpt: NuPOWER was designed to evaluate the efficacy and tolerability of elamipretide in nPMD subjects, with the primary efficacy endpoint being distance walked (meters) on the 6MWT [11]. Elamipretide was also studied in subjects with Barth Syndrome (TAZPOWER, SPIBA-201, NCT03098797), which ...

[2] = system: adult patients with primary mitochondrial myopathy (PMM); assay: Six-Minute Walk Test (6MWT) in the MMPOWER-3 Phase 3 trial, post hoc analysis by genotype; type: in vivo, human
Description: Full details of MMPOWER-3 have been previously described. In brief, MMPOWER-3 was a 24-week, randomized (1:1), double-blind, parallel-group, placebo-controlled clinical trial for adult patients with PMM, in which subjects received elamipretide 40 mg subcutaneously once daily or placebo [6]. In the original analysis of MMPOWER-3, subjects were stratified by the type of pathogenic DNA variant (nDNA vs mtDNA) determined to be the primary cause of PMM as approved by the adjudication committee. Pathogenic DNA variants causing PMM were subclassified as causing mtDNA or nDNA disorders. The prespecified exploratory analysis was conducted to further examine the effects of elamipretide on the change from baseline to week 24 in the 6MWT by genetic subgroups. Subject demographics at baseline have been previously published in detail.
In the original analysis of MMPOWER-3, the efficacy of elamipretide was analyzed by genetic pathogenic variant subclass (mtDNA vs. nDNA) utilizing a mixed model repeated measures (MMRM). In the new exploratory analysis, the effect of elamipretide on the least squares (LS) mean change from baseline in distance walked on the 6MWT at 4 weeks, 12 weeks, and end of treatment (week 24) was examined as a function of gene variants using subjects from the MMPOWER-3 per-protocol population who successfully completed the trial. The analysis evaluated 6MWT results by specific mtDNA and nDNA genotypes. Efficacy in the mtDNA replisome subgroup was further assessed by the presence of the chronic progressive external ophthalmoplegia (CPEO) as a phenotype.

[3] = system: adult patients with primary mitochondrial myopathy (PMM); settings: elamipretide 40 mg s.c. once daily; nDNA cohort n = 59; placebo 0.3 m; p = 0.03; previously published post-hoc analysis; cited from earlier work
Excerpt: Baseline functional characteristics of these patients is described elsewhere. At week 24, subjects in ...

[4] = system: adult patients with primary mitochondrial myopathy (PMM); settings: post-hoc genetic subgroup analysis of the co-primary endpoint; previously published; cited from earlier work
Description: Elamipretide is the first experimental therapeutic compound progressing to a Phase 3 clinical trial in patients with PMM (MMPOWER-3). This trial followed the Phase 1/2 (MMPOWER-1) and Phase 2 (MMPOWER-2) clinical trials, in which treatment with elamipretide was analyzed in patients with PMM.

Substance: elamipretide
- Improvement in 6MWT, Barth Syndrome [1]: 95.9 m
- 6MWT change from baseline, MT-TL1 pathogenic variants ([2]; elamipretide 40 mg s.c. once daily, 24 weeks, n = 21, placebo (n = 28) 42.4 m): 25.3 m
- 6MWT improvement (change from baseline), mtDNA replisome post-hoc cohort ([2]; elamipretide 40 mg s.c. once daily, mtDNA replisome cohort, placebo 2.0 ± 8.6 m, p = 0.06): 25.2 ± 8.7 m
- LS mean (SE) change from baseline in 6MWT, replisome variants with CPEO phenotype ([2]; elamipretide 40 mg s.c. once daily, week 24, n = 18, baseline mean 316.5 ± 17.5, placebo (n = 14) −8.0 ± 10.7 m, p = 0.0024): 37.3 ± 9.5 m
- LS mean (SE) change from baseline in distance walked on 6MWT, mtDNA pathogenic variants ([2]; elamipretide 40 mg s.c. once daily, week 24, n = 73, placebo (n = 73) 24.1 ± 6.3 m): 14.9 ± 6.4 m
- Between-group difference in 6MWT change, mtDNA pathogenic variants ([2]; week 24, elamipretide vs placebo, difference in favor of placebo): 9.2 m
- 6MWT difference elamipretide vs placebo, single mtDNA deletions ([2]; week 24, n = 49): no observable differences
- 6MWT improvement, nDNA cohort [3]: 25.2 m
- PMMSA TFS, nDNA cohort compared with mtDNA cohort [4]: did not demonstrate a differential effect
